# Measured values: ChEMBL document CHEMBL4219230, “Design, synthesis and biological evaluation of novel 4-phenylisoquinolinone BET bromodomain inhibitors” (Bioorg Med Chem Lett, 2018)
# Columns and labels:
# [1] = Protein binding in mouse plasma; assay type: ADME, cell-free; settings: read-out: PPB (converted)
# [2] = Protein binding in human plasma; assay type: ADME, cell-free; settings: read-out: PPB (converted)
# [3] = in vivo; settings: CD1, mouse, po, 10 mg/kg
# [4] = in vitro; settings: mouse
# Description: Half life in mouse liver microsomes
# [5] = in vitro; settings: dog, MDCK-MDR1
# Description: Permeability across apical to basolateral side in MDCK cells expressing MDR1
# [6] = physchem; settings: buffer, pH 7.4
# Description: Solubility of the compound at pH 7.4
fraction unbound [1],fraction unbound [2],AUC(0-t) at 6 h [3],half-life ([4]; liver microsomes),Papp A→B [5],solubility [6],SMILES,half-life ([4]; microsomes)
0.14,0.12,11400 ng·h/mL,> 3.33 h,6 ×10⁻⁶ cm/s,12 µg/mL,CCOc1ccc(S(=O)(=O)CC)cc1-c1cn(C)c(=O)c2ccc(-c3cnn(C)c3)cc12,
,,,,,,CCNC(=O)C[C@@H]1N=C(c2ccc(Cl)cc2)c2cc(OC)ccc2-n2c(C)nnc21 [MOLIBRESIB],1.58 h
